Results taken from patent US9180132B2, “Antimicrobial cationic steroids and methods of use” (The Trustees of the University of Pennsylvania, priority 2010, dated 2015).

Legend:
[1] = system: GFP-GR; assay: GFP-GR translocation study in BAECs; type: cell-based; details: 0.01-1 μM, 60-minute treatment
Description: BAECs were seeded at 1×10^5/ml in 24 well plates and allowed to spread overnight. Cells were transfected with GFP-GR chimeric protein by adding 450 ng of DNA complexed with 2 ul of lipofectamine in a 200 ul volume of Optimem media growth to each well of a 24 well plate for ˜1.5 hour. The DNA-lipofectamine complex was then removed and cells placed in DMEM supplemented with 0.5% calf serum. This reduced level of calf serum was used to prevent non-specific translocation of GFP-GR receptor in response to hormones in the serum. […] Analysis of GFP-GR translocation was conducted by counting the number of cells in each field of view, which had GFP-GR nuclear localization compared to total number of cells. ˜40 cells were analyzed per condition.

[2] = Water solubility; type: physicochemical
Excerpt: The 21-hydroxy group of dexamethasone is not required for anti-inflammatory activity, and therefore is an ideal choice for conjugation to a polycation (FIG. 1A) (Schimmer et al., 1996, in The Pharmacological Basis of Therapeutics, 1459-1485, eds. Hardman and Limbird, McGraw-Hill, New York). […] Traut's reagent is selectively ring-opened by the primary amines (Hermanson, 1996, Bioconjugate Techniques, Academic Press) on spermine, forming a hydrolytically sensitive amidimide bond (Hermanson, 1996, Bioconjugate Techniques, Academic Press) between spermine and iminothiolane and a reactive thiolate anion that reacts with the α-keto mesylate on the 21 position of dexamethasone mesylate (Simmons et al., 1980, J. Org. Chem. […]), yielding an α-keto thioether linkage between the dexamethasone and iminothiolane. Dexamethasone mesylate (prepared or received from Steraloids, N.H.) or dexamethasone (Steraloids, N.H.), 2-iminothiolane (Traut's reagent) (Pierce), spermine (Sigma), and ethanol or DMSO (Aldrich) were used as received. […] For DA, FIG. 1B: Calc: C, 63.26; H, 7.35; N, 2.84. Found: C, 63.44; H, 7.27; N, 2.83.

[3] = system: Bovine aortic endothelial cells (BAEC); assay: Lipofection of BAEC with EGFP plasmid; type: cell-based; details: unconjugated, alone
Description: Bovine aortic endothelial cells (BAEC, passage 4-13) were passaged at a 1:3 split to 24-well culture plates, and then grown to dense confluence before lipofection. Growth medium was Dulbecco's modified Eagle's medium (DMEM) containing 10% heat inactivated charcoal-filtered (to remove steroid hormones) fetal calf serum (Hyclone), 0.30 mg/ml glutamine, 150 U/ml penicillin, and 0.15 mg/ml streptomycin (Gibco). […] The plasmids pEGFP-N3 and pGRE-SEAP (Clontech) were used for expression of EGFP or secreted alkaline phosphatase under the regulation of CMV or GRE promoters, respectively. […]
For lipofection, a solution of DS/DOPE in 125 μl OptiMEM I (Gibco) was mixed with a solution of DNA in 125 μl OptiMEM I, incubated for 30 to 60 minutes, and then overlaid on BAEC cells for 2 hours, followed by PBS rinse and addition of growth media. Fluorescence was measured after 48 hours. […] EGFP expression of transfections was monitored in duplicate (FIG. 2A) or triplicate (FIG. 2B) with a fluorescent plate reader (Labsystems Fluoroskan Ascent; 485 nm/538 nm filter pair) with background subtraction using the autofluorescence of non-transfected BAEC. […] Supernatant was collected, and pooled with supernatant from PBS washed and pelleted cells (total volume 750 μl), and EGFP fluorescence was measured (Ex 485, Em 515; SLM fluorometer). […]

Compound | nuclear localization (translocation) of GFP-GR [1] | solubility [2] [mg/mL] | gene transfer activity (EGFP expression) [3]
LL-37: cathelicidin peptide LL37, naturally occurring antibacterial agent (LLGDFFRKSKEKIGKEFKRIVQRIKDFLRNLVPRTES; Antibacterial peptide LL-37; UniProt P49913 134-170, looked up) | not observed |  | 
CCCCCCCCNCCC[C@@H](C)[C@H]1CC[C@H]2[C@@H]3[C@H](OCCCN)C[C@@H]4C[C@H](OCCCN)CC[C@]4(C)[C@H]3C[C@H](OCCCN)[C@]12C [CSA-13] | not observed |  | 
CC1C[C@H]2[C@@H]3CCC4=CC(=O)C=C[C@]4(C)[C@@]3(F)C(O)C[C@]2(C)[C@@]1(O)C(=O)CSCCCC(=N)NCCCNCCCCNCCCN (some centres unmarked) [DS, N-[3-({4-[(3-aminopropyl)amino]butyl}amino)propyl]-4-[(9-fluoro-11,17-dihydroxy-16-methyl-3,20-dioxopregna-1,4-dien-21-yl)sulfanyl]butanimidamide] | caused nuclear localization of GFP-GR | > 100 | 
NCCCNCCCCNCCCN [Spermine, spermine] |  |  | no detectable gene transfer activity
